# Results: patent publication US11220524B2, “Selective inhibitors of protein arginine methyltransferase 5 (PRMT5)” (PRELUDE THERAPEUTICS, INCORPORATED, priority 2017, dated 2022)
# Counter-ions that a name gives are not always drawn. Like-named read-outs stand apart in the source and are kept apart here.
# Key:
# PRMT5/MEP50 complex = PRMT5/MEP50 complex (Homo sapiens (Human), UniProt O14744); assay: Biochemical assay: PRMT5/MEP50 methylation of histone H2A with 3H-SAM, filter plate scintillation
# Experimental: Biochemical Assay Protocol
# Compounds were solubilized, and 3-fold diluted in 100% DMSO. […] Standard reactions were performed in a total volume of […] assay buffer, with histone H2A (5 μM final) as substrate. To this was added the PRMT5/MEP50 complex diluted to provide a final assay concentration of 5 nM and the compounds were allowed to preincubate for 15 to 20 minutes at room temperature. The reaction was initiated by adding S-[3H-methyl]-adenosyl-L-methionine (PerkinElmer) to final concentration of 1 μM. Following a 60 minutes incubation at 30° C., the reaction was stopped by adding 100 μL of 20% TCA. Each reaction was spotted onto filter plate (MultiScreen FB Filter Plate, Millipore), and washed 5 times with PBS buffer, Scintillation fluid was added to the filter plate and read in a scintillation counter. IC50 values were determined by fitting the data to the standard 4 parameters with Hill Slope using GraphPad Prism software.
# [1] = tested on: Symmetric Di-Methyl Arginine (sDMA) in Granta-519 cells; assay: Western blot for symmetric di-methyl arginine (sDMA) marks in Granta cells, 3 days treatment; assay type: cell-based; conditions: Homo sapiens, 3 days
# Experimental: Cell Treatment and Western Blotting for Detecting Symmetric Di-Methyl Arginine (sDMA) and Histone H3R8 Dimethyl Symmetric (H3R8me2s) Marks
# Initial compounds screening in A549 cells: Compounds were dissolved in DMSO to make 10 mM stock and further diluted to 0.1, and 1 mM. A549 cells were maintained in PRMI 1640 (Corning Cellgro, Catalog #: 10-040-CV) medium supplemented with 10% v/v FBS (GE Healthcare, Catalog #: SH30910.03). One day before experiment, 1.25×10^5 cells were seeded in 6 well plate in 3 mL medium and incubated overnight. The next day, medium was changed and 3 uL of compound solution was added (1:1,000 dilution, 0.1 and 1 uM final concentration; DMSO concentration: 0.1%), and incubated for 3 days. Cells incubated with DMSO was used as a vehicle control. Cells were washed once with PBS, trypsinized in 150 uL 0.25% Trypsin (Corning, Catalog #: 25-053-CI), neutralized with 1 mL complete medium, transferred to microcentrifuge tubes and collected. Cell pellet was then resuspended in 15 uL PBS, lysed in 4% SDS, and homogenized by passing through homogenizer column (Omega Biotek, Catalog #: HCR003). Total protein concentrations were determined by BCA assay (ThermoFisher Scientific, Catalog #: 23225). Lysates were mixed with 5× Laemmli buffer and boiled for 5 min. Forty ug of total protein was separated on SDS-PAGE gels (Bio-Rad, catalog #: 4568083, 4568043), transferred to PVDF membrane, blocked with 5% dry milk (Bio-Rad, Catalog #: 1706404) in TBS with 0.1% v/v Tween 20 (TBST) for 1 hour at room temperature (RT), and incubated with primary antibodies (sDMA: Cell signaling, Catalog #: 13222, 1:3,000; H3R8me2s: Epigentek, Catalog #: A-3706-100, 1:2,000; β-Actin: Abcam, Catalog #: ab8227, 1:10,000) in 5% dry milk in TBST at 4° C. for overnight. The next day, membranes were washed with TBST, 5×5 min, and incubated withhP conjugated seconded antibody (GE Healthcare; Catalog #: NA934-1ML; 1:5,000) for 2 hours at RT, followed by 5×5 min washes with TBST, and incubation with ECL substrates (Bio-Rad, Catalog #: 1705061, 1705062). Chemiluminescent signal was captured with FluoChem HD2 imager (Proteinsimple) and analyzed by ImageJ.
# Cells incubated with DMSO was used as a vehicle control. Cells were harvested and subjected to western blot analysis as described above. SmD3me2s and H3R8me2s bands were quantified by ImageJ. Signals were normalized to β-Actin and DMSO control. IC50 values were calculated using Graphpad Prism.
# [2] = biochemical potency, read-out: PRTMT5/MEP50 IC50
# [3] = Granta-519, 72 h, Granta cell line
# [4] = histone H2A 5 μM, SAM 1 μM, enzyme 5 nM, read-out: PRMT5/MEP50 IC50
# Chain of PRMT5/MEP50 complex (O14744 whole entry): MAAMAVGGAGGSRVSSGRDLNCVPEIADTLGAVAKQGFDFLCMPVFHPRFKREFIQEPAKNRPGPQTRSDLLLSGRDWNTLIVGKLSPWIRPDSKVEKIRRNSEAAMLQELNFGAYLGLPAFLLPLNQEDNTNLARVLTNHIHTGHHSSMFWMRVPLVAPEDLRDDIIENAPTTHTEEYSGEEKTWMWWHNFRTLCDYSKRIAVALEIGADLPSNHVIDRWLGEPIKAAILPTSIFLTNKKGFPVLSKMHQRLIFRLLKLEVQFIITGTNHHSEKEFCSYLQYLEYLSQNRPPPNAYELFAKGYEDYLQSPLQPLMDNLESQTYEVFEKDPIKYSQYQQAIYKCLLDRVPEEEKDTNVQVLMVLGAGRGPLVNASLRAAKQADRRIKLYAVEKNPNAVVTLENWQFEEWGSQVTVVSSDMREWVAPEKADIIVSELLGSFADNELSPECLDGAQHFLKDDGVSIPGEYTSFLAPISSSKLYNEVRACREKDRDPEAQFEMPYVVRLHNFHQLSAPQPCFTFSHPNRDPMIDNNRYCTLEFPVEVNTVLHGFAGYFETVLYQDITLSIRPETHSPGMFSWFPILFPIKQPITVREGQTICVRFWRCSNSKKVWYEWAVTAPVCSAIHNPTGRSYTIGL
# Chain of PRMT5/MEP50 complex (Q9BQA1 whole entry partner): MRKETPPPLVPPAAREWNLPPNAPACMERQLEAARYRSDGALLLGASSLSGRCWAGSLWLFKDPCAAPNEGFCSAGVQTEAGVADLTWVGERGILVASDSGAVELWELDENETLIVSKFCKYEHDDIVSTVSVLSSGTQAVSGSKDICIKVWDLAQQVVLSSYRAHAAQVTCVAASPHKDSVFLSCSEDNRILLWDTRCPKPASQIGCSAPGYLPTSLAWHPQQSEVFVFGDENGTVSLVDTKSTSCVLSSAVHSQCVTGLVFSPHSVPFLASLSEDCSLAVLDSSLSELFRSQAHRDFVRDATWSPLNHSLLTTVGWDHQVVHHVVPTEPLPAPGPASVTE
SMILES,IC50 (PRMT5/MEP50 complex; [4]) [nM],also measured
"CC(c1ccc(Cl)cc1)C1O[C@@H](n2ccc3c(N)ncnc32)[C@H](O)[C@@H]1O (stereo in doubt) [Example 6-C, (2R,3R,4S,5S)-2-(4-amino-7H-pyrrolo[2,3-d]pyrimidin-7-yl)-5-(1-(4-chlorophenyl)ethyl)tetrahydrofuran-3,4-diol]",–,"IC50 (PRMT5/MEP50 complex; [2]): 6.9 nM; IC50 [1, 3]: 93 nM"
"Cc1cc([C@@](C)(O)[C@H]2O[C@@H](n3cnc4c(N)ncnc43)[C@H](O)[C@@H]2O)ccc1Cl [Example 2-C, (2R,3R,4S,5S)-2-(6-amino-9H-purin-9-yl)-5-((R)-1-(4-chloro-3-methylphenyl)-1-hydroxyethyl)tetrahydrofuran-3,4-diol]",–,"IC50 (PRMT5/MEP50 complex; [2]): 13.5 nM; IC50 [1, 3]: 13 nM"
"C[C@@](O)(c1ccc(Cl)c(Cl)c1)[C@H]1O[C@@H](n2cc(F)c3c(N)ncnc32)[C@H](O)[C@@H]1O [Example 3-C, (2R,3R,4S,5S)-2-(4-amino-5-fluoro-7H-pyrrolo[2,3-d]pyrimidin-7-yl)-5-((R)-1-(3,4-dichlorophenyl)-1-hydroxyethyl)tetrahydrofuran-3,4-diol]",–,"IC50 (PRMT5/MEP50 complex; [2]): 0.9 nM; IC50 [1, 3]: 3.8 nM"
"C[C@@H](c1ccc(Cl)cc1)[C@H]1O[C@@H](n2ccc3c(N)ncnc32)[C@H](O)[C@@H]1O [Example 5-C, (2R,3R,4S,5R)-2-(4-amino-7H-pyrrolo[2,3-d]pyrimidin-7-yl)-5-((S)-1-(4-chlorophenyl)ethyl)tetrahydrofuran-3,4-diolhydrochloride]",–,"IC50 [1, 3]: 91 nM"
"C[C@@](O)(c1ccc(Cl)c(F)c1)[C@H]1O[C@@H](n2cc(F)c3c(N)ncnc32)[C@H](O)[C@@H]1O [Example 15-C, (2R,3R,4S,5S)-2-(4-amino-5-fluoro-7H-pyrrolo[2,3-d]pyrimidin-7-yl)-5-((R)-1-(4-chloro-3-fluorophenyl)-1-hydroxyethyl)tetrahydrofuran-3,4-diol]",–,"IC50 (PRMT5/MEP50 complex; [2]): 1 nM; IC50 [1, 3]: 1.9 nM"
"CCO/N=c1\nc[nH]c2c1ccn2[C@@H]1O[C@H]([C@](C)(O)c2ccc(Cl)cc2)[C@@H](O)[C@H]1O [Example 83, 7-((2R,3R,4S)-5-((R)-1-(4-chlorophenyl)-1-hydroxyethyl)-3,4-dihydroxytetrahydrofuran-2-yl)-1,7-dihydro-4H-pyrrolo[2,3-d]pyrimidin-4-one O-ethyl oxime]",–,"IC50 ([1]; 72 h, Granta-519 cell line): 97 nM"
CO/N=c1/nc[nH]c2c1ccn2[C@@H]1O[C@H]([C@](C)(O)c2ccc(Cl)c(F)c2)[C@@H](O)[C@H]1O [Example 96],–,"IC50 ([1]; 72 h, Granta-519 cell line): 142 nM"
"C#Cc1cn([C@@H]2O[C@H]([C@H](O)c3ccc(Cl)c(Cl)c3)[C@@H](O)[C@H]2O)c2[nH]cn/c(=N\OC)c12 [Example 104, 7-((2R,3R,4S,5R)-5-((R)-(3,4-dichlorophenyl)(hydroxy)methyl)-3,4-dihydroxytetrahydrofuran-2-yl)-5-ethynyl-1,5-dihydro-4H-7l4-pyrrolo[2,3-d]pyrimidin-4-one O-methyl oxime]",10.2,–
"O[C@@H]1[C@H](O)[C@@H]([C@H](O)c2ccc(Cl)c(Cl)c2)O[C@H]1n1ccc2/c(=N/OCC(F)F)nc[nH]c21 [Example 106, 7-((2R,3R,4S,5R)-5-((R)-(3,4-dichlorophenyl)(hydroxy)methyl)-3,4-dihydroxytetrahydrofuran-2-yl)-1,4a,7,7a-tetrahydro-4H-pyrrolo[2,3-d]pyrimidin-4-one 0-(2,2-difluoroethyl) oxime]",113,–
"CO/N=c1\nc[nH]c2c1c(F)cn2[C@@H]1O[C@H]([C@](C)(O)c2ccc(Cl)c(Cl)c2)[C@@H](O)[C@H]1O [Example 107, 7-((2R,3R,4S,5S)-5-((R)-1-(3,4-dichlorophenyl)-1-hydroxyethyl)-3,4-dihydroxytetrahydrofuran-2-yl)-5-fluoro-1,7-dihydro-4H-pyrrolo[2,3-d]pyrimidin-4-one O-methyl oxime]",28,–
"CO/N=c1\nc[nH]c2c1c(F)cn2[C@@H]1OC([C@H](O)c2ccc(Cl)cc2)[C@@H](O)[C@H]1O (stereo partly drawn) [compound 74, 7-((2R,3R,4S)-5-((R)-(4-chlorophenyl)(hydroxy)methyl)-3,4-dihydroxytetrahydrofuran-2-yl)-5-fluoro-1,7-dihydro-4H-pyrrolo[2,3-d]pyrimidin-4-one O-methyl oxime]",75.6,–
"CO/N=c1\nc[nH]c2c1ccn2[C@@H]1O[C@H]([C@H](O)c2ccc(C(F)(F)F)cc2)[C@@H](O)[C@H]1O [compound 75, 7-((2R,3R,4S,5R)-3,4-dihydroxy-5-((R)-hydroxy(4-(trifluoromethyl)phenyl)methyl)tetrahydrofuran-2-yl)-1,7-dihydro-4H-pyrrolo[2,3-d]pyrimidin-4-one O-methyl oxime]",95.4,–
"Cc1cn([C@@H]2O[C@H]([C@H](O)c3ccc(Cl)cc3)[C@@H](O)[C@H]2O)c2[nH]cn/c(=N\O)c12 [compound 77, 7-((2R,3R,4S,5R)-5-((R)-(4-chlorophenyl)(hydroxy)methyl)-3,4-dihydroxytetrahydrofuran-2-yl)-5-methyl-1,7-dihydro-4H-pyrrolo[2,3-d]pyrimidin-4-one oxime]",118,–
"CO/N=c1\nc[nH]c2c1ccn2[C@@H]1OC([C@](O)(c2ccc(Cl)cc2)C(F)(F)F)[C@@H](O)[C@H]1O (stereo partly drawn) [compound 79, 7-((2R,3R,4S)-5-((R)-1-(4-chlorophenyl)-2,2,2-trifluoro-1-hydroxyethyl)-3,4-dihydroxytetrahydrofuran-2-yl)-1,7-dihydro-4H-pyrrolo[2,3-d]pyrimidin-4-one O-methyl oxime]",6460,–

# Second part, led by results:
IC50 (PRMT5/MEP50 complex; [4]) [nM],SMILES,also measured
308,"C#Cc1cn([C@@H]2O[C@H]([C@H](O)c3ccc(Cl)cc3)[C@@H](O)[C@H]2O)c2[nH]cn/c(=N\OC)c12 [Example 101, 7-((2R,3R,4S,5R)-5-((R)-(4-chlorophenyl)(hydroxy)methyl)-3,4-dihydroxytetrahydrofuran-2-yl)-5-ethynyl-1,7-dihydro-4H-pyrrolo[2,3-d]pyrimidin-4-one O-methyl oxime]",–
0.2,"C[C@@](O)(C1C=C(Cl)C(Cl)=CC1)[C@H]1O[C@@H](n2ccc3/c(=N\O)nc[nH]c32)[C@H](O)[C@@H]1O (stereo partly drawn) [Example 105, 7-((2R,3R,4S,5S)-5-((1R)-1-(3,4-dichlorocyclohexa-2,4-dien-1-yl)-1-hydroxyethyl)-3,4-dihydroxytetrahydrofuran-2-yl)-1,7-dihydro-4H-pyrrolo[2,3-d]pyrimidin-4-one oxime]",–
180,"N/N=c1/nc[nH]c2c1ncn2[C@@H]1O[C@H]([C@H](O)c2ccc(Cl)cc2)[C@@H](O)[C@H]1O [compound 39, (2R,3S,4R,5R)-2-[(R)-(4-chlorophenyl)-hydroxy-methyl]-5-(6-hydrazinopurin-9-yl) tetrahydrofuran-3,4-diol]",–
526,"CO/N=c1/nc[nH]c2c1ncn2[C@@H]1O[C@H]([C@H](O)c2ccc(Cl)cc2)[C@@H](O)[C@H]1O [compound 53, (2R,3S,4R,5R)-2-[(R)-(4-chlorophenyl)-hydroxy-methyl]-5-[6-methoxyimino-3H-purin-9-yl]tetrahydrofuran-3,4-diol trifluoroacetic Acid Salt]",–
2.7,"N/N=c1\nc[nH]c2c1ccn2[C@@H]1O[C@H]([C@H](O)c2ccc(C(F)(F)F)cc2)[C@@H](O)[C@H]1O [compound 76, (2R,3R,4S,5R)-2-((Z)-4-hydrazineylidene-1,4-dihydro-7H-pyrrolo[2,3-d]pyrimidin-7-yl)-5-((R)-hydroxy(4-(trifluoromethyl)phenyl)methyl)tetrahydrofuran-3,4-diol]",–
